From patent US9684238B2, “Fluorene-type compound, photopolymerization initiator comprising said fluorene-type compound, and photosensitive composition containing said photopolymerization initiator” (TOKYO OHKA KOGYO CO., LTD., priority 2012, dated 2017)

Tests used:
[1] = Evaluation 1: 20-μm pattern line width of transparent photosensitive composition; conditions: transparent composition, initiator 0.4 mmol
[2] = Decomposition point by thermal analysis (TG-DTA); assay type: physicochemical; conditions: 5.0 mg
Protocol: The compounds 1, 2, 4, 6, 8, 9, 11, 12, 13, 15, 16, D-1, D-3, D-4, D-7, D-8, D-9, D-12, D-14, D-15, D-20, C-1, and C-2 were each subjected to measurement with a thermal analysis apparatus (TG-DTA) (manufactured by Rigaku Corporation, trade name: “Thermo Plus EVO TG 8120”) by using 5.0 mg thereof.

CCCC1(CCC)c2cc(C(=O)c3ccccc3C)ccc2-c2ccc(/C(C)=N/OC(C)=O)cc21 [Compound 4]
20-μm pattern line width ([1]; exposure energy quantity 10 mJ/cm^2): 19.4 | 20-μm pattern line width ([1]; exposure energy quantity 20 mJ/cm^2): 20.0 | 20-μm pattern line width ([1]; exposure energy quantity 40 mJ/cm^2): 21.3 | 20-μm pattern line width ([1]; exposure energy quantity 60 mJ/cm^2): 22.1 | 20-μm pattern line width ([1]; exposure energy quantity 80 mJ/cm^2): 22.4 | Decomposition point [2]: 277.0 °C
